# According to ChEMBL document CHEMBL4118233, “Rational design of bis-indolylmethane-oxadiazole hybrids as inhibitors of thymidine phosphorylase” (Bioorg Med Chem, 2018):
# Biological target: Thymidine phosphorylase (Escherichia coli K-12, UniProt P07650)
# Test: Inhibition of Escherichia coli thymidine phosphorylase pretreated for 10 mins followed by substrate addition measured at 10 mins interval for 30 mins by spectrophotometric method
# Settings: not given; call rule not given here
# Sequence of Thymidine phosphorylase (P07650 whole entry): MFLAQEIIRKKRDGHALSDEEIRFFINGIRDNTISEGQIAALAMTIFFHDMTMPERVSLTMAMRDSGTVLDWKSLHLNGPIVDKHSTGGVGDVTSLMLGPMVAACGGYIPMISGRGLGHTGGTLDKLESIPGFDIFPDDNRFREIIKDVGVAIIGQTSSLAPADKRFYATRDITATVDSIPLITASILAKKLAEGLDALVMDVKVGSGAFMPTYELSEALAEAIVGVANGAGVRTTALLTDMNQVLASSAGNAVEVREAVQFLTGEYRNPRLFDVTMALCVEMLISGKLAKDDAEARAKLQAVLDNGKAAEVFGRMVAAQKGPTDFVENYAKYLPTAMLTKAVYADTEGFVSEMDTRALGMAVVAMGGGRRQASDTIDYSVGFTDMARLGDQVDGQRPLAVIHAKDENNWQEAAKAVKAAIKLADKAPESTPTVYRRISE
row,IC50,Structure (SMILES)
1,Not Active,Cc1ccc(-c2nnc(-c3ccc(C(c4c[nH]c5ccc(Cl)cc45)c4c[nH]c5ccc(Cl)cc45)cc3)o2)cc1
2,Not Active,Clc1ccc2[nH]cc(C(c3ccc(-c4nnc(-c5ccncc5)o4)cc3)c3c[nH]c4ccc(Cl)cc34)c2c1
3,Not Active,O=[N+]([O-])c1ccc(-c2nnc(-c3ccc(C(c4c[nH]c5ccc(Cl)cc45)c4c[nH]c5ccc(Cl)cc45)cc3)o2)cc1
4,Not Active,Cc1ccccc1-c1nnc(-c2ccc(C(c3c[nH]c4ccc(Cl)cc34)c3c[nH]c4ccc(Cl)cc34)cc2)o1
5,Not Active,Cc1cccc(-c2nnc(-c3ccc(C(c4c[nH]c5ccc(Cl)cc45)c4c[nH]c5ccc(Cl)cc45)cc3)o2)c1
6,Not Active,O=[N+]([O-])c1cccc(-c2nnc(-c3ccc(C(c4c[nH]c5ccc(Cl)cc45)c4c[nH]c5ccc(Cl)cc45)cc3)o2)c1
7,Not Active,Clc1ccc2[nH]cc(C(c3ccc(-c4nnc(-c5cccnc5)o4)cc3)c3c[nH]c4ccc(Cl)cc34)c2c1

# Same assay, conditions: read-out: IC50
row,IC50 [µM],Structure (SMILES)
1,29.3,Clc1ccc2[nH]cc(C(c3ccc(-c4nnc(-c5ccccc5Cl)o4)cc3)c3c[nH]c4ccc(Cl)cc34)c2c1
2,46.2,Clc1ccc(-c2nnc(-c3ccc(C(c4c[nH]c5ccc(Cl)cc45)c4c[nH]c5ccc(Cl)cc45)cc3)o2)cc1
3,64.2,O=[N+]([O-])c1ccccc1-c1nnc(-c2ccc(C(c3c[nH]c4ccc(Cl)cc34)c3c[nH]c4ccc(Cl)cc34)cc2)o1
4,33.5,COc1ccc(-c2nnc(-c3ccc(C(c4c[nH]c5ccc(Cl)cc45)c4c[nH]c5ccc(Cl)cc45)cc3)o2)cc1O
5,38.4,Clc1ccc2[nH]cc(C(c3ccc(-c4nnc(-c5ccccn5)o4)cc3)c3c[nH]c4ccc(Cl)cc34)c2c1
6,53.5,Oc1cccc(-c2nnc(-c3ccc(C(c4c[nH]c5ccc(Cl)cc45)c4c[nH]c5ccc(Cl)cc45)cc3)o2)c1
7,24.5,Oc1ccc(-c2nnc(-c3ccc(C(c4c[nH]c5ccc(Cl)cc45)c4c[nH]c5ccc(Cl)cc45)cc3)o2)cc1
8,9.3,Oc1cccc(-c2nnc(-c3ccc(C(c4c[nH]c5ccc(Cl)cc45)c4c[nH]c5ccc(Cl)cc45)cc3)o2)c1O
9,35.2,COc1ccc(-c2nnc(-c3ccc(C(c4c[nH]c5ccc(Cl)cc45)c4c[nH]c5ccc(Cl)cc45)cc3)o2)c(O)c1
10,3.5,Oc1ccc(-c2nnc(-c3ccc(C(c4c[nH]c5ccc(Cl)cc45)c4c[nH]c5ccc(Cl)cc45)cc3)o2)c(O)c1
11,29.4,Fc1cccc(-c2nnc(-c3ccc(C(c4c[nH]c5ccc(Cl)cc45)c4c[nH]c5ccc(Cl)cc45)cc3)o2)c1
12,6.1,Oc1ccc(O)c(-c2nnc(-c3ccc(C(c4c[nH]c5ccc(Cl)cc45)c4c[nH]c5ccc(Cl)cc45)cc3)o2)c1
13,45.2,COc1ccc(O)c(-c2nnc(-c3ccc(C(c4c[nH]c5ccc(Cl)cc45)c4c[nH]c5ccc(Cl)cc45)cc3)o2)c1
14,9.1,Fc1ccc(-c2nnc(-c3ccc(C(c4c[nH]c5ccc(Cl)cc45)c4c[nH]c5ccc(Cl)cc45)cc3)o2)cc1
15,54.6,Clc1cccc(-c2nnc(-c3ccc(C(c4c[nH]c5ccc(Cl)cc45)c4c[nH]c5ccc(Cl)cc45)cc3)o2)c1
16,12.2,Oc1ccc(-c2nnc(-c3ccc(C(c4c[nH]c5ccc(Cl)cc45)c4c[nH]c5ccc(Cl)cc45)cc3)o2)cc1O
17,17.3,Fc1ccccc1-c1nnc(-c2ccc(C(c3c[nH]c4ccc(Cl)cc34)c3c[nH]c4ccc(Cl)cc34)cc2)o1
18,43.5,Oc1ccccc1-c1nnc(-c2ccc(C(c3c[nH]c4ccc(Cl)cc34)c3c[nH]c4ccc(Cl)cc34)cc2)o1
